Reference: patent US20110009379A1, “INDOLINONE COMPOUND” (ASTELLAS PHARMA INC., priority 2008, published 2011)

Columns and labels:
gastric emptying of rats = experiment: Activity to gastric emptying of TRPA1 agonist (phenol red, rats); assay type: in vivo; conditions: Rattus norvegicus; male wistar rats, oral administration, versus control animals; read-out: ED50 (amount which suppresses 50% of gastric emptying)
Description: When EC cell is stimulated by content of a gastrointestinal tract, 5-HT is secreted. The secreted 5-HT promotes the secretion or motility through a 5-HT receptor present in intestinal nerve plexus or gastrointestinal smooth muscle. The secreted 5-HT is instantly taken into a cell by its specific transporter, and is metabolized by […]. Thus, while it is considerably difficult to directly measure the secreted 5-HT concentration, it has been known that gastric emptying is delayed as a physiological activity through 5-HT in rodents. In order to verify in vivo activity through 5-HT of the compound to be tested, activity to gastric emptying of rats by various TRPA1 agonists was studied.
In the experiment, male wistar rats (body weight 290 to 360 g) were used. The animals were purchased from Japan SLC (Shizuoka). The animals were allowed to drink water freely under a constitutive environment.
5 minutes after the medicine was orally administered, 0.05% phenol red solution (1.5 mL) was orally administered. After 15 minutes, rats were put painlessly to death by cervical vertebral dislocation, their stomachs were exenterated, and phenol red was eluted with 0.1M aqueous NaOH solution (5 mL) from the exenterated stomachs. 20% aqueous trichloroacetic acid solution (0.1 mL) was added to the NaOH solution (0.5 mL), followed by stirring and centrifugation at 15,000 rpm, at 4° C., for 10 minutes. 0.5M aqueous NaOH solution (0.2 mL) was added to the supernatant (0.05 mL), followed by stirring, and absorbance at 560 nm was measured using an absorption spectrometer (spectrometer spectramax M2; Molecular Devices, CA, USA).
A gastric emptying was calculated by the following calculating formula.
Gastric emptying (%)=100−(A/B)×100
A: amount of phenol red remaining in stomach
B: amount of phenol red remaining in stomach just after administering phenol red
ED50 values (amount of the compound to be tested which suppresses 50% of gastric emptying, with respect to the control animals without administering the compound to be tested) of some of the compounds of the formula (I) are shown in Table 2. In this connection, comparative compound 1 and comparative compound 2 are (3E)-1-methyl-3-(2-oxopropyridene)-1,3-dihydro-2H-indol-2-one, and (3E)-3-(2-oxopropyridene)-1-prop-2-in-1-yl-1,3-dihydro-2H-indol-2-one described in Non Patent Document 4 above, and has the following chemical structures, respectively.

human TRPA1 = biological target: T1, human TRPA1 (Homo sapiens, UniProt O75762, K186N/R3C/R58T); experiment: Measurement of TRPA1 activation activity (intracellular calcium, FLIPR, HEK293 cells stably expressing human TRPA1); assay type: cell-based; conditions: change of intracellular calcium concentration
T1 construct: expressed in transfected cells; pcDNA3.1(+) vector)
T1 sequence (O75762 whole entry R3C/R58T/K186N): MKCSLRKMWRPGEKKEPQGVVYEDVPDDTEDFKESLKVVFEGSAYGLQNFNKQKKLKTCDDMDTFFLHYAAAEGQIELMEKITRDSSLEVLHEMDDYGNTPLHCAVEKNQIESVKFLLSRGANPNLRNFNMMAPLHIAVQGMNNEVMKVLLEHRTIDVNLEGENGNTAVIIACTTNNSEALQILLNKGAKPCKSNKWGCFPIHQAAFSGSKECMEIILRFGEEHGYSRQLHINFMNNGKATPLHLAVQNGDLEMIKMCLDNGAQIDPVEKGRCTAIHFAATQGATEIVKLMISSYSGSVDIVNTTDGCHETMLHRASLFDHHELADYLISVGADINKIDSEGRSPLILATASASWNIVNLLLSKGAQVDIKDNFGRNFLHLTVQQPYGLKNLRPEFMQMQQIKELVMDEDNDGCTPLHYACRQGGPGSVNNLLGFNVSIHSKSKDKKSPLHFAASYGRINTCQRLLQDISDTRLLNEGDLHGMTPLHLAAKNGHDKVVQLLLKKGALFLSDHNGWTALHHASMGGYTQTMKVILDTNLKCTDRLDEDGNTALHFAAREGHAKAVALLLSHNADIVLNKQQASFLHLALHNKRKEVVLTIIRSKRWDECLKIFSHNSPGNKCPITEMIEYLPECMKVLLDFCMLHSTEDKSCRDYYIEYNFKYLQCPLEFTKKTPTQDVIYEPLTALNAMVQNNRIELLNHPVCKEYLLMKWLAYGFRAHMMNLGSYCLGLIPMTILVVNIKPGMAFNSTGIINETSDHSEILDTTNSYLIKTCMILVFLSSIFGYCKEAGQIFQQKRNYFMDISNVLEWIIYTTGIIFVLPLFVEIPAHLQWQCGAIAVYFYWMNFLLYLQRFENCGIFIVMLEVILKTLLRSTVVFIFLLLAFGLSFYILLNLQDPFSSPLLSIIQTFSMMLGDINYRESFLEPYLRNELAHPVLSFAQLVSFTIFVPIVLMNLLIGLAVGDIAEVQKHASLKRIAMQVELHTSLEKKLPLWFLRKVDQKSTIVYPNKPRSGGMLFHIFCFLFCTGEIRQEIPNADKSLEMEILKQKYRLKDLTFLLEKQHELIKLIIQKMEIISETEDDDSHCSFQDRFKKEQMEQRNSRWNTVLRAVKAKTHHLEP
Description: 10 ng of Human brain mRNA (Clontech Co.) was treated with DNase, and then was reverse transcribed using kit for reverse transcription-polymerase chain reaction (RT-PCR) (SUPERSCRIPT First-Strand Synthesis System for RT-PCR; Invitrogen Co.) to synthesize the first strand cDNA. PCR using a hot start method was performed using the first strand cDNA as a template and Taq DNA polymerase (LA Taq DNA polymerase; TAKARA SHUZO). The PCR was performed using oligonucleotides consisting of the nucleotide sequences, represented by sequence number 2 as a sense primer and sequence number 3 as an antisense primer, in which firstly, heat denaturation was performed at 98° C. (1 minute), and then a cycle of 98° C. (15 seconds)/56° C. (30 seconds)/72° C. (5 minutes) was repeated 35 times. As a result, a DNA fragment of about 3.3 kbp was amplified.
The DNA fragment was cloned to pCR-TOPO vector using a cloning kit (TOPO XL PCR Cloning Kit; Invitrogen). The obtained plasmid DNA was digested with restriction enzymes KpnI and HindIII, and then was cloned using plasmid pcDNA 3.1(+)(Invitrogen). In this connection, the plasmid pcDNA 3.1(+) has a promoter sequence derived from cytemegalovirus, and can be used in order to express a protein in animal cells.
The nucleotide sequences of the obtained clones were analyzed using DNA sequencer (ABI3700 DNA Sequencer; Applied Biosystems) by dideoxyterminator method, and the nucleotide sequence represented by sequence number 1 was obtained. Furthermore, when these sequences were translated to amino acid sequences, the amino acid sequence represented by sequence number 1 was obtained.
After constructing the expression vector of the human TRPA1 gene, selection by G418 was performed from the HEK293 cells which temporarily expressed TRPA1 by transfection operation to obtain cells stably expressing TRPA1. The above operation was performed according to known methods (experimental medicine supplementary volume, “Cultivation Cell Experimental Methods for Molecular Biology Study” published by Toshio Kuroki, Namho Hue and Kazuhiro Chida, 1995, Yodosha).
In order to measure the change of the intracellular calcium concentration in the cells stably expressing the human TRPA1, the change of the intracellular calcium concentration when a compound to be tested was added was measured using FLIPR (Molecular Device).
In order to measure the change of the intracellular calcium concentration with FLIPR, the following pretreatment was performed. First of all, assay buffer was prepared which was for adding fluorescent pigment Fluo4-AM (DOJIN) to the cells or washing the cells just before performing FLIPR assay. To a solution (hereinafter, HBSS/HEPES solution) where 20 mL of 1M HEPES (pH 7.4; Invitrogen) was added to 1000 mL of a physiological saline buffer (Hank's Balanced Salt Solution; HBSS) (Invitrogen), was added 10 mL of a solution where 710 mg of probenecid (Sigma) was dissolved into 5 mL of 1M aqueous NaOH solution and 5 mL of HBSS/HEPES solution was further added and mixed, and the assay buffer was thus prepared. Then, 50 μg of Fluo4-AM was dissolved into 22 μL of DMSO (DOJIN), the same amount of 20% pluronic acid (Molecular Probes) was added thereto and mixed, and the mixture was added to the 10.6 mL of the assay buffer where 105 μL of fetal bovine serum was added, to prepare a fluorescent pigment solution. The medium of the cells stably expressing TRPA1 was removed, 100 μL per well of the fluorescent pigment solution was dispensed immediately, followed by cultivation in a CO2 cultivator for 1 hour, and the fluorescent pigment was soaked in the cells. The cells after cultivation were washed using the assay buffer, followed by being set in FLIPR. Furthermore, a test sample, which was added to the cells stably expressing TRPA1, was prepared by using the assay buffer, and at the same time, was set in FLIPR. […]

Cytochrome P450(2D6) = Cytochrome P450(2D6) (Homo sapiens, UniProt P10635); experiment: Cytochrome P450(2D6) enzyme inhibition test; assay type: in vitro ADME; conditions: CYP2D6, fluorescent substrate 1.5 μmol/L, 37° C., 20 minutes
Cytochrome P450(2D6), sequence (P10635 whole entry): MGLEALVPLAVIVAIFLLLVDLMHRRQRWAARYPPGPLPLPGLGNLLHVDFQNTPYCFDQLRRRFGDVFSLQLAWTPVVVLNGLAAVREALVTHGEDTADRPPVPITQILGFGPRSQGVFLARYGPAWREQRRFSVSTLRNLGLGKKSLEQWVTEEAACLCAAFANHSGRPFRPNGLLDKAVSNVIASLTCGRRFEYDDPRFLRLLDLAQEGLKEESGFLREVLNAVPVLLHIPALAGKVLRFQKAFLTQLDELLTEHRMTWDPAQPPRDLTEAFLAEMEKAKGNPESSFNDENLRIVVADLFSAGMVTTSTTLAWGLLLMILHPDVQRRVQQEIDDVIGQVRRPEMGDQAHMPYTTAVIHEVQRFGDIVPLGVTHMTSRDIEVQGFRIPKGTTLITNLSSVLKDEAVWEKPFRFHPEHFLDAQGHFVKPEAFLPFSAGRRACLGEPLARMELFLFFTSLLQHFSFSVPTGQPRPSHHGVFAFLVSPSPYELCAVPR
Description: The experiment was performed in accordance with the method of Crespi et al. (Analytical Biochemistry, 248, 188-190, 1997).
As a substrate, 3-[2-(N,N-diethyl-N-methylamino)ethyl]-7-methoxy-4-methyl coumarine (1.5 μmol/L) a compound to be tested (3.1×10^−7 to 2×10^−5 M) and an enzyme (2.5×10^−8 M) were incubated at 37° C. for 20 minutes in total of […] of 100 mM phosphorous buffer (pH=7.4) including 8.2 mM NADP+, 0.41 mM glucose-6-phosphate, 0.41 mM MgCl2 and 0.4 Units/mL glucose-6-phosphate dehydrogenase, using 96 well plates. Then, 0.5 M aqueous 2-amino-2-hydroxymethyl-1,3-propandiol solution containing 80% acetonitrile was added to stop the reaction, fluorescence intensity (excitation wavelength; 390 nm, fluorescent wavelength; 460 nm) was measured with a fluorescent plate reader. An inhibition ratio was calculated with the following formula, and the test compound concentration when the inhibition ratio is 50% (IC50) was obtained.
C1: fluorescence intensity in the presence of the test compound and enzyme at know concentrations, and the substrate
C0: fluorescence intensity in the presence of the enzyme and substrate, without the test compound
B1: fluorescence intensity of blank well

Row | Structure (SMILES) | ED50 (gastric emptying of rats) [mg/kg] | melting point [°C] | also measured
1 | CC(C)(C)CN1C(=O)/C(=C/C(=O)O)c2ccccc21 [Example 25] | 0.31 |  | 
2 | CC[C@H](C)CN1C(=O)/C(=C/C(=O)O)c2cccc(F)c21 [Example 47, (2E)-{7-fluoro-1-[(2S)-2-methylbutyl]-2-oxo-1,2-dihydro-3H-indol-3-ylidene}acetic acid] | 0.61 | 137 to 139 | EC50 (human TRPA1): 1010 nM
3 | O=C(/C=C1/C(=O)N(CC2CCCC2)c2c(F)cccc21)N1CCC1 [Example 33] |  |  | EC50 (human TRPA1): 1300 nM
4 | O=C(/C=C1/C(=O)N(CC2CCCC2)c2ccccc21)N1CCC1 [Example 62, (3E)-3-(2-azetidin-1-yl-2-oxoethylidene)-1-(cyclopentylmethyl)-1,3-dihydro-2H-indol-2-one] |  | 111 to 113 | 
5 | CCC(CC)CN1C(=O)/C(=C/C(=O)N2CCC2)c2ccccc21 [Example 65, (3E)-3-(2-azetidin-1-yl-2-oxoethylidene)-1-(2-ethylbutyl)-1,3-dihydro-2H-indol-2-one] |  | 116 to 118 | 
6 | CCC(CC)CN1C(=O)/C(=C/C(=O)N2CCCC2)c2ccccc21 [Example 64, (3E)-1-(2-ethylbutyl)-3-(2-oxo-2-pyrrolidin-1-ylethylidene)-1,3-dihydro-2H-indol-2-one] |  | 71 to 73 | 
7 | CCC(CC)CN1C(=O)/C(=C/C(=O)O)c2ccccc21 [Example 63, (2E)-[1-(2-ethylbutyl)-2-oxo-1,2-dihydro-3H-indol-3-ylidene]acetic acid] |  | 147 to 149 | 
8 | O=C(O)/C=C1/C(=O)N(Cc2ccccc2)c2c(F)cccc21 [Example 18, (2E)-(1-benzyl-7-fluoro-2-oxo-1,2-dihydro-3H-indol-3-ylidene)acetic acid] | 3.6 | 168 to 170 | 
9 | O=C(O)/C=C1/C(=O)N(CC2CC2)c2c(F)cccc21 [Example 37, (2E)-[1-(cyclopropylmethyl)-7-fluoro-2-oxo-1,2-dihydro-3H-indol-3-ylidene]acetic acid] |  | 171 to 173 | IC50 (Cytochrome P450(2D6)): > 50000 nM
10 | COc1cccc(CN2C(=O)/C(=C/C(=O)O)c3cccc(Cl)c32)c1 [Example 39] | 0.24 |  | 
11 | NC(=O)/C=C1/C(=O)N(Cc2ccccc2)c2ccccc21 [Example 20] | 4.4 |  | 
12 | CCC(CC)CN1C(=O)/C(=C/C(=O)O)c2cccc(F)c21 [Example 36] | 0.069 |  | 
13 | O=C(/C=C1/C(=O)N(CC2CCCCC2)c2ccccc21)N1CCC1 [Example 61, (3E)-3-(2-azetidin-1-yl-2-oxoethylidene)-1-(cyclohexylmethyl)-1,3-dihydro-2H-indol-2-one] |  | 163 to 165 | 
14 | CC(C)CCN1C(=O)/C(=C/C(=O)O)c2cccc(F)c21 [Example 49, (2E)-[7-fluoro-1-(3-methylbutyl)-2-oxo-1,2-dihydro-3H-indol-3-ylidene]acetic acid] |  | 142 to 144 | EC50 (human TRPA1): 830 nM
15 | CC(C)CN1C(=O)/C(=C/C(=O)O)c2cccc(F)c21 [Example 1, (2E)-(7-fluoro-1-isobutyl-2-oxo-1,2-dihydro-3H-indol-3-ylidene)acetic acid] | 0.13 |  | IC50 (Cytochrome P450(2D6)): > 20000 nM; EC50 (human TRPA1): 4270 nM
16 | C#CCN1C(=O)/C(=C/C(C)=O)c2ccccc21 [comparative compound 2, (3E)-3-(2-oxopropyridene)-1-prop-2-in-1-yl-1,3-dihydro-2H-indol-2-one, reference compound] | 8.8 |  | 
17 | CN(C)C(=O)/C=C1/C(=O)N(CC2CCCCC2)c2ccccc21 [Example 59, (2E)-2-[1-(cyclohexylmethyl)-2-oxo-1,2-dihydro-3H-indol-3-ylidene]-N,N-dimethylacetamide] |  | 80 to 82 | 
18 | NC(=O)/C=C1/C(=O)N(CC2CCCC2)c2c(F)cccc21 [Example 29] |  |  | EC50 (human TRPA1): 660 nM
19 | O=C(/C=C1/C(=O)N(CC2CCCC2)c2c(F)cccc21)N1CCOCC1 [Example 40] | 0.59 |  | 
20 | O=C(/C=C1/C(=O)N(CC2CCC2)c2ccccc21)N1CCC1 [Example 66, (3E)-3-(2-azetidin-1-yl-2-oxoethylidene)-1-(cyclobutylmethyl)-1,3-dihydro-2H-indol-2-one] |  | 133 to 135 | 
21 | CN(C)C(=O)/C=C1/C(=O)N(CC2CCCC2)c2c(F)cccc21 [Example 43, (2E)-2-[1-(cyclopentylmethyl)-7-fluoro-2-oxo-1,2-dihydro-3H-indol-3-ylidene]-N,N-dimethylacetamide] |  | 51 to 53 | IC50 (Cytochrome P450(2D6)): > 25000 nM; EC50 (human TRPA1): 3760 nM
22 | O=C(/C=C1/C(=O)N(CC2CCC2)c2ccccc21)N1CCCC1 [Example 67, (3E)-1-(cyclobutylmethyl)-3-(2-oxo-2-pyrrolidin-1-ylethylidene)-1,3-dihydro-2H-indol-2-one] |  | 108 to 110 | 
23 | O=C(/C=C1/C(=O)N(CC2CCCC2)c2c(F)cccc21)N1CCCC1 [Example 30] | 0.42 |  | 
